Several values for one entry are separate records, joined by “and”; a condition that tells them apart may be missing. Identical values can stand only once.
Test: xn = mol fraction of the nth substance listed

COc1ccccc1 + CCCCO
viscosity [mPa·s]
Details	303 K	303.15 K	313 K	313.15 K	323 K	323.15 K
100 kPa, x1 = 0.121	1.831	–	1.255	–	1.031	–
100 kPa, x1 = 0.236	1.534	–	1.069	–	0.8722	–
100 kPa, x1 = 0.346	1.297	–	0.9238	–	0.7426	–
100 kPa, x1 = 0.452	1.128	–	0.8353	–	0.6858	–
100 kPa, x1 = 0.553	1.049	–	0.7844	–	0.6551	–
100 kPa, x1 = 0.65	0.9984	–	0.7302	–	0.6131	–
100 kPa, x1 = 0.742	0.9819	–	0.7012	–	0.5948	–
100 kPa, x1 = 0.832	0.9796	–	0.6884	–	0.5673	–
100 kPa, x1 = 0.918	0.9769	–	0.6724	–	0.5517	–
101.33 kPa, x1 = 0.1002	–	1.874	–	1.48	–	1.165
101.33 kPa, x1 = 0.2	–	1.523	–	1.254	–	0.989
101.33 kPa, x1 = 0.3001	–	1.359	–	1.075	–	0.899
101.33 kPa, x1 = 0.3998	–	1.197	–	0.975	–	0.806
101.33 kPa, x1 = 0.5	–	1.079	–	0.889	–	0.75
101.33 kPa, x1 = 0.6002	–	1.001	–	0.851	–	0.734
101.33 kPa, x1 = 0.7	–	0.952	–	0.805	–	0.721
101.33 kPa, x1 = 0.8003	–	0.929	–	0.788	–	0.709
101.33 kPa, x1 = 0.9	–	0.914	–	0.772	–	0.698

c1ccc2ccccc2c1 + CCCCO
viscosity
Details	303.15 K	308.15 K	313.15 K	318.15 K	323.15 K
101 kPa, x1 = 0.07958	2.076 mPa·s	1.848 mPa·s	1.633 mPa·s	1.461 mPa·s	1.312 mPa·s
101 kPa, x1 = 0.1174	–	1.796 mPa·s	1.601 mPa·s	1.427 mPa·s	1.28 mPa·s
101.33 kPa, x1 = 0.06489	–	–	1.67 mPa·s	–	1.33 mPa·s
101.33 kPa, x1 = 0.07958	2.076 mPa·s	1.848 mPa·s	1.633 mPa·s and 1.633 mPa·s	1.461 mPa·s	1.312 mPa·s and 1.312 mPa·s
101.33 kPa, x1 = 0.09537	–	–	1.624 mPa·s	–	1.3 mPa·s
101.33 kPa, x1 = 0.1174	–	–	1.601 mPa·s	–	1.28 mPa·s
101.33 kPa, x1 = 0.12	–	1.796 mPa·s	1.601 mPa·s	1.427 mPa·s	1.28 mPa·s
101.33 kPa, x1 = 0.1436	–	–	1.567 mPa·s	–	1.26 mPa·s

CC(C)=O + CCCCn1cc[n+](C)c1.F[B-](F)(F)F
Details	viscosity [mPa·s]
298.15 K, 101 kPa, x1 = 0.0973	77.6

CC(C)=O + CCCO
viscosity [mPa·s]
Details	293.15 K	298.15 K	303.15 K	308.15 K	313.15 K	318.15 K	323.15 K
100 kPa, x1 = 0.0998	1.594	1.433	1.292	1.169	1.061	0.9672	0.8879
100 kPa, x1 = 0.1998	1.18	1.075	0.9822	0.8994	0.825	0.7583	0.6972
100 kPa, x1 = 0.3	0.9113	0.8407	0.7774	0.7203	0.6684	0.6206	0.576
100 kPa, x1 = 0.4001	0.735	0.6844	0.6379	0.595	0.5538	0.5147	0.4769
100 kPa, x1 = 0.4999	0.6175	0.5801	0.5456	0.513	0.4815	0.4495	0.4195
100 kPa, x1 = 0.6	0.5137	0.4875	0.4629	0.4389	0.4158	0.392	0.3661
100 kPa, x1 = 0.6998	0.4493	0.429	0.4094	0.3911	0.3733	0.3543	0.3317
100 kPa, x1 = 0.8002	0.407	0.391	0.3751	0.3599	0.3448	0.3286	0.3156
100 kPa, x1 = 0.9	0.3728	0.3531	0.34	–	0.301	0.2875	0.279
100 kPa, x1 = 0.9001	–	–	–	0.3221	–	–	–
101 kPa, x1 = 0.1032	–	1.433	–	–	–	–	–
101 kPa, x1 = 0.2056	–	0.9891	–	–	–	–	–
101 kPa, x1 = 0.3073	–	0.7819	–	–	–	–	–
101 kPa, x1 = 0.4083	–	0.6403	–	–	–	–	–
101 kPa, x1 = 0.5086	–	0.5381	–	–	–	–	–
101 kPa, x1 = 0.6082	–	0.4652	–	–	–	–	–
101 kPa, x1 = 0.7072	–	0.4139	–	–	–	–	–
101 kPa, x1 = 0.8055	–	0.3742	–	–	–	–	–
101 kPa, x1 = 0.903	–	0.3453	–	–	–	–	–

Cc1ccccc1 + CCCO
Details	viscosity [mPa·s]
293.15 K, 100 kPa, x2 = 0.125	0.611
293.15 K, 100 kPa, x2 = 0.25	0.636
293.15 K, 100 kPa, x2 = 0.375	0.747
293.15 K, 100 kPa, x2 = 0.5	0.875
293.15 K, 100 kPa, x2 = 0.625	1.055
293.15 K, 100 kPa, x2 = 0.75	1.312
293.15 K, 100 kPa, x2 = 0.875	1.685
298.15 K, 100 kPa, x2 = 0.0553	0.5596
298.15 K, 100 kPa, x2 = 0.1089	0.572
298.15 K, 100 kPa, x2 = 0.1987	0.5972
298.15 K, 100 kPa, x2 = 0.319	0.6607
298.15 K, 100 kPa, x2 = 0.4308	0.7379
298.15 K, 100 kPa, x2 = 0.5349	0.7998
298.15 K, 100 kPa, x2 = 0.632	0.9538
298.15 K, 100 kPa, x2 = 0.723	1.116
298.15 K, 100 kPa, x2 = 0.8083	1.265
298.15 K, 100 kPa, x2 = 0.8884	1.563
298.15 K, 100 kPa, x2 = 0.9639	1.825
298.15 K, 101 kPa, x2 = 0.1	0.558
298.15 K, 101 kPa, x2 = 0.2	0.588
298.15 K, 101 kPa, x2 = 0.3	0.6389
298.15 K, 101 kPa, x2 = 0.4	0.7091
298.15 K, 101 kPa, x2 = 0.5	0.801
298.15 K, 101 kPa, x2 = 0.6	0.9211
298.15 K, 101 kPa, x2 = 0.7	1.08
298.15 K, 101 kPa, x2 = 0.8	1.292
298.15 K, 101 kPa, x2 = 0.9	1.576
303 K, 101 kPa, x1 = 0.1006	1.367
303 K, 101 kPa, x1 = 0.2012	1.171
303 K, 101 kPa, x1 = 0.3009	1.025
303 K, 101 kPa, x1 = 0.3981	0.902
303 K, 101 kPa, x1 = 0.5016	0.785
303 K, 101 kPa, x1 = 0.6052	0.699
303 K, 101 kPa, x1 = 0.7001	0.645
303 K, 101 kPa, x1 = 0.8095	0.598
303 K, 101 kPa, x1 = 0.9011	0.546
303.15 K, 101.33 kPa, x1 = 0.1141	1.376
303.15 K, 101.33 kPa, x1 = 0.1926	1.182
303.15 K, 101.33 kPa, x1 = 0.2912	0.982
303.15 K, 101.33 kPa, x1 = 0.3778	0.866
303.15 K, 101.33 kPa, x1 = 0.4778	0.761
303.15 K, 101.33 kPa, x1 = 0.6242	0.651
303.15 K, 101.33 kPa, x1 = 0.7421	0.587
303.15 K, 101.33 kPa, x1 = 0.8737	0.541
303.15 K, 101.33 kPa, x1 = 0.9517	0.527
308.15 K, 100 kPa, x2 = 0.0553	0.5017
308.15 K, 100 kPa, x2 = 0.1089	0.5107
308.15 K, 100 kPa, x2 = 0.1987	0.5293
308.15 K, 100 kPa, x2 = 0.319	0.572
308.15 K, 100 kPa, x2 = 0.4308	0.6289
308.15 K, 100 kPa, x2 = 0.5349	0.6996
308.15 K, 100 kPa, x2 = 0.632	0.7945
308.15 K, 100 kPa, x2 = 0.723	0.8952
308.15 K, 100 kPa, x2 = 0.8083	1.019
308.15 K, 100 kPa, x2 = 0.8884	1.24
308.15 K, 100 kPa, x2 = 0.9639	1.422
308.15 K, 101.33 kPa, x1 = 0.1141	1.251
308.15 K, 101.33 kPa, x1 = 0.1926	1.078
308.15 K, 101.33 kPa, x1 = 0.2912	0.899
308.15 K, 101.33 kPa, x1 = 0.3778	0.795
308.15 K, 101.33 kPa, x1 = 0.4778	0.703
308.15 K, 101.33 kPa, x1 = 0.6242	0.608
308.15 K, 101.33 kPa, x1 = 0.7421	0.553
308.15 K, 101.33 kPa, x1 = 0.8737	0.514
308.15 K, 101.33 kPa, x1 = 0.9517	0.499
313.15 K, 100 kPa, x2 = 0.125	0.479
313.15 K, 100 kPa, x2 = 0.25	0.495
313.15 K, 100 kPa, x2 = 0.375	0.554
313.15 K, 100 kPa, x2 = 0.5	0.625
313.15 K, 100 kPa, x2 = 0.625	0.728
313.15 K, 100 kPa, x2 = 0.75	0.876
313.15 K, 100 kPa, x2 = 0.875	1.087
313.15 K, 101.33 kPa, x1 = 0.1141	1.15
313.15 K, 101.33 kPa, x1 = 0.1926	0.99
313.15 K, 101.33 kPa, x1 = 0.2912	0.83
313.15 K, 101.33 kPa, x1 = 0.3778	0.736
313.15 K, 101.33 kPa, x1 = 0.4778	0.655
313.15 K, 101.33 kPa, x1 = 0.6242	0.57
313.15 K, 101.33 kPa, x1 = 0.7421	0.521
313.15 K, 101.33 kPa, x1 = 0.8737	0.491
313.15 K, 101.33 kPa, x1 = 0.9517	0.476
